Assay results: paper PMC7866009, “Evaluation of Nanotargeted ^111In-Cyclic RGDfK-Liposome in a Human Melanoma Xenotransplantation Model” (International Journal of Molecular Sciences, 2021)
Non-standard residues stand in square brackets, D forms with d.

Key:
[1] = test system: αVβ3 integrin-mediated adhesion of A375.S2 cells; assay: CytoSelect cell adhesion assay of A375.S2 cells on extracellular matrix proteins; format: cell-based, human; details: 100 nM; cells adhere to coated plate at 37 °C (1 h in legend, 90 min in method); crystal violet OD 560 nm; five experiments
Experimental: Next, we tested the effect of the cyclic RGDfK-liposome on the αVβ3 integrin -mediated cellular adhesion using human malignant melanoma A375.S2 cells on recombinant extracellular matrix proteins.
Figure 1 Evaluating the effect of the cyclic RGDfK-liposome on αVβ3 integrin-mediated cell adhesion. […] A375.S2 cells was pretreated with 100 nM cRGDfV, cRGDfK, cRGDfK-PEG2000-DSPE or the cRGDfK-liposome and allowed to adhere to a coating of fibronectin, collagenI or collagen IV for 1 h at 37 °C before washing and detection of cell adhesion (B) or followed by staining with FITC-labeled mouse anti-human CD51/CD61 monoclonal antibody (C). […] These experiments were performed for five times.
Adhesion assay were performed with CytoSelect TM Cell Adhesion Assay Kit. Principle, A375.S2 cells (1 × 10^6/well) in working solution (serum-free MEM medium, 1mM Mn^2+, and 0.5% bovine serum albumin) were allowed to adhere to extracellular matrix proteins-coated plate for 90 min at 37 °C. Cells were analyzed for binding in the presence or absence of test subjects. Non-adherent cells were removed by a flick wash. The adherent cells were stained with crystal violet and examined the optical density at λmax 560 nm.

[2] = test system: integrin αVβ3; details: cited from earlier work
Text: The arginin-glycine-aspatic acid (RGD) sequence is the cell attachment site of a large number of adhesive extracellular matrix, blood, and cell surface proteins, and nearly half of the over 20 known integrins recognize this sequence in their adhesion protein ligands. The integrin-binding selective activity to only one or a few of the RGD-directed integrins can be designed by cyclizing peptides with selected sequences around the RGD.

[3] = target: αVβ3 integrin (human (endogenous in A375.S2)) (UniProt P06756)
[4] = target: αVβ3 integrin (human (endogenous in A375.S2)) (UniProt P06756); remark: listed apart in the source

Chain of UniProt P06756 (P06756 31-1048, chain 1 of 2): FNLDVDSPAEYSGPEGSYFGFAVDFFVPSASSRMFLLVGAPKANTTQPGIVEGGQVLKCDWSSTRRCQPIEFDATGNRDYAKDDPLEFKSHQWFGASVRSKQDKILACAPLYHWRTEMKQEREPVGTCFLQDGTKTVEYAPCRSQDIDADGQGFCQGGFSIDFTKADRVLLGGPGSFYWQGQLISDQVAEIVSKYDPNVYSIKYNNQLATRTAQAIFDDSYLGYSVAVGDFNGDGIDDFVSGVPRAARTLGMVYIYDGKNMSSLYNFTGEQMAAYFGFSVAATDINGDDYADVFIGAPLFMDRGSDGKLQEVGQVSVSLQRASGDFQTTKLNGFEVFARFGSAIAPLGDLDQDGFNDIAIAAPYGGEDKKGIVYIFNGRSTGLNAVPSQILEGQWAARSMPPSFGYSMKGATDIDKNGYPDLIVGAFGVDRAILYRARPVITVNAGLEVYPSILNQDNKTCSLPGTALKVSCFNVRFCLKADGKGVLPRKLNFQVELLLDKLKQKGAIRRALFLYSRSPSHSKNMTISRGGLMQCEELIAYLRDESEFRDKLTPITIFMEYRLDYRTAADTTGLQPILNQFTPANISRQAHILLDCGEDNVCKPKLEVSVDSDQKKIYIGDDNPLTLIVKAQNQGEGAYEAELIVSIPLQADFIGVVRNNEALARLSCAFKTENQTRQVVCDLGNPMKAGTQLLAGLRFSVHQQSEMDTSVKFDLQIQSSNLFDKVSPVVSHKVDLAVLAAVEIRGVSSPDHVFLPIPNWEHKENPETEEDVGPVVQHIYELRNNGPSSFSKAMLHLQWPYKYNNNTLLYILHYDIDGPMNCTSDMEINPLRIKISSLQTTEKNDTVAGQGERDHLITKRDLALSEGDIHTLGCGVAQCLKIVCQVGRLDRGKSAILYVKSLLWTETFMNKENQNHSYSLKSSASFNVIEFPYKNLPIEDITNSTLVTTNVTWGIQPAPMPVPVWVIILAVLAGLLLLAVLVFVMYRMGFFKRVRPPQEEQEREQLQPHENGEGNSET
Chain of UniProt P06756 (P05106 27-788, chain 2 of 2, further chain): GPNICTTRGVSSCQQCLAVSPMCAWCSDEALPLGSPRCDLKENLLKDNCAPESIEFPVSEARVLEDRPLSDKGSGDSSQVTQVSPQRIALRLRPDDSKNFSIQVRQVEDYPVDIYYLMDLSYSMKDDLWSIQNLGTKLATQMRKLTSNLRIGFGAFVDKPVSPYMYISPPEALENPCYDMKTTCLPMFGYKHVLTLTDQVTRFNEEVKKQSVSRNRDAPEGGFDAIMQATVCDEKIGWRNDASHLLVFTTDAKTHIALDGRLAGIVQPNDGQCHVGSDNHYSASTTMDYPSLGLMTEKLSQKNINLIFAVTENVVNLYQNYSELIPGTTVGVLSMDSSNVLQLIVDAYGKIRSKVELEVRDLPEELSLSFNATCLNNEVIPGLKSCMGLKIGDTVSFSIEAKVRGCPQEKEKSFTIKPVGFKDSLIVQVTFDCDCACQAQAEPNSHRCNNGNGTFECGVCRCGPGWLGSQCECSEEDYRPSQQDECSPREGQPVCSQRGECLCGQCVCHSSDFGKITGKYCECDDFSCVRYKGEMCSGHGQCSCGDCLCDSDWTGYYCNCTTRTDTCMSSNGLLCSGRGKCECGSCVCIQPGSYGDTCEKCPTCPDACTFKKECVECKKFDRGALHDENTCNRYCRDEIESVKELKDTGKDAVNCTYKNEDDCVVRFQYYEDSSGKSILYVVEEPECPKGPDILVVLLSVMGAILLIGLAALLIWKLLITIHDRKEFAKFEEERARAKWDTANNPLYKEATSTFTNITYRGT

| Molecule | A375.S2 cell adhesion to fibronectin, collagen I, and collagen IV [1] | binding affinity for integrin αVβ3 [2] | tumor-to-blood ratio of the 111In-labeled cyclic RGDfK-liposome, mice without a metastatic growth of human melanoma cells (111In-liposome without peptide: 1) [3] | uptake of the 111In-labeled cyclic RGDfK-liposome in tumor, mice without a metastatic growth of human melanoma cells (111In-liposome without peptide: 2.2) [3] [%ID/g] | tumor-to-blood ratio of the 111In-labeled cyclic RGDfK-liposome, mice with a metastatic growth of human melanoma cells (111In-liposome without peptide: 1.3) [4] | uptake of the 111In-labeled cyclic RGDfK-liposome in tumor (jejunal lymph node), mice with a metastatic growth of human melanoma cells (111In-liposome without peptide: 2.9) [4] [%ID/g] |
| --- | --- | --- | --- | --- | --- | --- |
| N=C(N)NCCC[C@@H]1NC(=O)[C@H](CCCCN)NC(=O)[C@@H](Cc2ccccc2)NC(=O)[C@H](CC(=O)O)NC(=O)CNC1=O [cRGDfK] | markedly reduced | high binding affinity |  |  |  |  |
| CC(C)[C@@H]1NC(=O)[C@@H](Cc2ccccc2)NC(=O)[C@H](CC(=O)O)NC(=O)CNC(=O)[C@H](CCCNC(=N)N)NC1=O [cRGDfV] | markedly reduced | high binding affinity |  |  |  |  |
| cyclo(RGD[dF]K) (also: conjugated via NHS-PEG2000-DSPE, inserted into PEGylated liposome) [cyclic RGDfK-liposome] |  |  | 4.8 | 5.3 | 5.6 | 6.2 |
